Data on 1 compound can be found in patent publication US20150080380A1, “Therapeutic Uses” (GLAXOSMITHKLINE INTELLECTUAL PROPERTY DEVELOPMENT LIMITED, priority 2012, published 2015).

The target in this assay is T1, human recombinant H3 receptor (Homo sapiens, UniProt Q9Y5N1).
T1 construct: host or cells: HEK-293-GαO cells transduced with BacMam virus; membranes prepared
The assay can be described thus: GTPγS binding assay (basal binding, HEK-293-GαO membranes). It counts as biochemical. The conditions noted are these: 100 nM-0.001 nM, absence of H3R agonist, 3 independent experiments; read-out: pEC50, inhibition of basal GTPγS binding (converted). How it is done:
The effect of Example compound 1 on basal GTPγS binding to the H3R receptor was determined in the GTPγS binding assay.
Human embryonic kidney 293 cells stably expressing G protein GαO (HEK-293-GO) were maintained in minimum essential medium (MEM) supplemented with Earle's salts, 2 mM L-glutamine, […] geneticin and 10% foetal bovine serum at 37-8° C., 5% CO2 in a humidified environment. Exponentially growing cells were infected with BacMam virus encoding the human recombinant H3 receptor (Biocat: Virus 96801) as follows. Cells were detached from flasks in PBS and collected by centrifugation at 200×g for 5 min at room temperature. […]
Cell membranes were diluted to ˜1 mg/ml in assay buffer (20 mM HEPES, 100 mM NaCl, 10 mM MgCl2, pH 7.4) and incubated with wheat germ agglutinin scintillation proximity assay (SPA) beads (Amersham Biosciences) for 45 min, after which GDP ([…]) was added. […] Non-specific binding was determined by the inclusion of 0.6 mM GTPγS. […] Filters were washed twice with 4 ml ice-cold water and bound […] on the filters was measured by scintillation counting on a Wallac 1450 Microbeta Trilux counter.
The data was analyzed and presented as fold change of the number of the vehicle control well (DMSO). […]

T1 sequence (Q9Y5N1 whole entry): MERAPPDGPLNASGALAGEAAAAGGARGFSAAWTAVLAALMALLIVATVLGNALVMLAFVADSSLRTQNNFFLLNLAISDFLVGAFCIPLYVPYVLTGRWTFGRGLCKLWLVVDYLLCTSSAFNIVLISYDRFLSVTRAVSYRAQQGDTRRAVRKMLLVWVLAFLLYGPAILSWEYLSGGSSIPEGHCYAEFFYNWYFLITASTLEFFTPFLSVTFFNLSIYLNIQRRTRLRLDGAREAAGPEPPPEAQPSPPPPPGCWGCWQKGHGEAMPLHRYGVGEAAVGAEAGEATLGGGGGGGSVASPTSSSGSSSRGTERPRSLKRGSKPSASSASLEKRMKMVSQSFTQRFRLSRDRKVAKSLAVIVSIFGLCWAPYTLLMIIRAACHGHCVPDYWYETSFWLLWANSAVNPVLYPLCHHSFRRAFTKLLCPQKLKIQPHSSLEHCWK

On to `O=C1CCCN1c1ccc(Oc2ccc3c(c2)CCN(C2CCC2)CC3)nc1` [Example compound 1, 1-{6-[(3-cyclobutyl-2,3,4,5-tetrahydro-1H-3-benzazepin-7-yl)oxy]-3-pyridinyl}-2-pyrrolidinone], for which the EC50 was 0.112 nM.
